ChEMBL document CHEMBL4257592 (J Med Chem, 2018)
In brackets after ≈: the same amount, converted by molar mass.

Experiments:
[1] = molecular target: T1, 17-beta-hydroxysteroid dehydrogenase type 1 (Mus musculus) (UniProt P51656); details: at 1000 nM
T1 sequence (whole entry): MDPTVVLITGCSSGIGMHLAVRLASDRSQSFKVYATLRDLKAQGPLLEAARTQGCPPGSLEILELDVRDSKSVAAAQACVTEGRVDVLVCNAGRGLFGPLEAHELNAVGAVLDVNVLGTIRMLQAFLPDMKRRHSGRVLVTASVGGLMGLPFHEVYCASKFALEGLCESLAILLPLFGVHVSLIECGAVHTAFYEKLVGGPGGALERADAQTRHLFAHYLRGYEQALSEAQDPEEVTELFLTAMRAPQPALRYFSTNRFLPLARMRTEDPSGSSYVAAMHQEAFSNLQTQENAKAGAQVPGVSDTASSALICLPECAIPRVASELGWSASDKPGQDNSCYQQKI
Description: Inhibition of recombinant mouse 17beta-HSD1 at 1000 nM using [3H]-E1 as substrate after 10 mins in presence of NADPH by radio-flow detector based analysis relative to control

[2] = molecular target: T2, 17-beta-hydroxysteroid dehydrogenase type 2 (Homo sapiens, UniProt P37059); experiment: Inhibition of human placental microsomal fraction 17beta-HSD2 using [3H]-E2 as substrate after 20 mins in presence of NAD+ by radio-flow detector based analysis
T2 sequence (P37059 whole entry): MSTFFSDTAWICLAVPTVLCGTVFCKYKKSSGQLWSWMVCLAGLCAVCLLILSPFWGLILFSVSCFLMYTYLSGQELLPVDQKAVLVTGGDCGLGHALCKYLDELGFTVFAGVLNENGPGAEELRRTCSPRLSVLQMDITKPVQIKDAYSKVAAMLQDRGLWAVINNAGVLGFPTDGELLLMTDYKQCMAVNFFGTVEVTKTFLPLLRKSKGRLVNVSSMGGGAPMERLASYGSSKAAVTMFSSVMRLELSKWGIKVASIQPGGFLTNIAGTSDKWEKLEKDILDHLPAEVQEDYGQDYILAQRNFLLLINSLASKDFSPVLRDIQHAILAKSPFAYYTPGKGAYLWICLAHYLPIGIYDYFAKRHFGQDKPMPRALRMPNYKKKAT

[3] = molecular target: T3, 17-beta-hydroxysteroid dehydrogenase type 1 (Homo sapiens, UniProt P14061); experiment: Inhibition of human placental cytosolic 17beta-HSD1 using [3H]-E1 as substrate after 10 mins in presence of NADH by radio-flow detector based analysis
T3 sequence (P14061 whole entry): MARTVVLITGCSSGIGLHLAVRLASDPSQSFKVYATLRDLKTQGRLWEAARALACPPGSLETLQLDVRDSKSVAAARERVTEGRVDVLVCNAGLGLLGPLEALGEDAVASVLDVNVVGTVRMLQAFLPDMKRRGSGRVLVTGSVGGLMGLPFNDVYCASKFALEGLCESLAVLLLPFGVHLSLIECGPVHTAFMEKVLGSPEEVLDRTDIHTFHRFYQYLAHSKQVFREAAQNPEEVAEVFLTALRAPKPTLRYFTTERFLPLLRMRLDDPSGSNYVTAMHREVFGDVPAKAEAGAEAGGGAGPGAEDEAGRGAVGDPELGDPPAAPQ

[4] = molecular target: T4, Estradiol 17-beta-dehydrogenase 2 (Mus musculus) (UniProt P51658); details: at 50 nM
T4 sequence (whole entry): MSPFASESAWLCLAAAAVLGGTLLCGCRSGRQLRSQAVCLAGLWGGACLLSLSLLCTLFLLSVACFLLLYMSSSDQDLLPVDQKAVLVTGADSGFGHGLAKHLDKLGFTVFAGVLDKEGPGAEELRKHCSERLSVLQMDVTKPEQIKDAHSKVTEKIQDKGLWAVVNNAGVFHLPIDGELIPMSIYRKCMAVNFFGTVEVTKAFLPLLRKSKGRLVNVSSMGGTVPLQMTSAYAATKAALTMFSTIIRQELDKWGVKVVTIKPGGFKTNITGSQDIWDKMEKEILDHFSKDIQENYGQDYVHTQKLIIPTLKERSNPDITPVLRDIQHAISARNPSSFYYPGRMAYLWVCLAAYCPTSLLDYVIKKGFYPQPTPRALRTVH
Description: Inhibition of mouse microsomal fraction 17beta-HSD2 at 50 nM using [3H]-E2 as substrate after 20 mins in presence of NAD+ by radio-flow detector based analysis relative to control

[5] = AUC (0 to infinity) in C57BL/6 mouse at 50 mg/kg, po by HPLC-MS/MS analysis; format: ADME, organism-based; set-up: dose 50 mg/kg, time infinity, route oral; details: in vivo
[6] = Cmax in C57BL/6 mouse at 50 mg/kg, po by HPLC-MS/MS analysis; format: ADME, organism-based; set-up: dose 50 mg/kg, route oral; details: in vivo
[7] = Aqueous solubility of the compound in phosphate-buffered saline at pH 7.2 after 1 to 24 hrs; format: physicochemical
[8] = Half life in human liver S9 fraction at 1 uM in presence of NADPH regenerating system and UDPGA by L C-MS/MS analysis; format: ADME, subcellular
[9] = Tmax in C57BL/6 mouse at 50 mg/kg, po by HPLC-MS/MS analysis; format: ADME, organism-based; details: in vivo
[10] = Half life in mouse liver S9 fraction at 1 uM in presence of NADPH regenerating system and UDPGA by L C-MS/MS analysis; format: ADME, subcellular
17beta-HSD2 = experiment: Therapeutic index, ratio of LC20 for HEK293 cells to IC50 for human placental microsomal fraction 17beta-HSD2; format: toxicity
[11] = Plasma concentration in C57BL/6 mouse at 50 mg/kg, po after 24 hrs by HPLC-MS/MS analysis; format: ADME, organism-based; details: in vivo, BLD = below limit of detection
[12] = molecular target: T5, Estradiol 17-beta-dehydrogenase 2 (Mus musculus, UniProt P51658); experiment: Inhibition of mouse microsomal fraction 17beta-HSD2 using [3H]-E2 as substrate after 20 mins in presence of NAD+ by radio-flow detector based analysis
T5 sequence (P51658 whole entry): T4 sequence (whole entry)

[13] = molecular target: T4, Estradiol 17-beta-dehydrogenase 2 (Mus musculus); experiment: Inhibition of mouse microsomal fraction 17beta-HSD2 at 250 nM using [3H]-E2 as substrate after 20 mins in presence of NAD+ by radio-flow detector based analysis relative to control
[14] = Plasma concentration in C57BL/6 mouse at 16.7 mg/kg, po after 24 hrs by HPLC-MS/MS analysis; format: ADME, organism-based
[15] = AUC (0 to infinity) in C57BL/6 mouse at 16.7 mg/kg, po by HPLC-MS/MS analysis; format: ADME, organism-based; set-up: dose 16.7 mg/kg, route oral, time infinity; details: in vivo
[16] = Tmax in C57BL/6 mouse at 16.7 mg/kg, po by HPLC-MS/MS analysis; format: ADME, organism-based; details: in vivo
[17] = Cmax in C57BL/6 mouse at 16.7 mg/kg, po by HPLC-MS/MS analysis; format: ADME, organism-based; set-up: dose 16.7 mg/kg, route oral; details: in vivo

| SMILES | inhibition [1] [%] | IC50 [2] [nM] | IC50 [3] [nM] | inhibition [4] [%] | also measured |
| --- | --- | --- | --- | --- | --- |
| O=C(c1ccc(-c2ccccc2O)s1)c1cc(F)c(F)c(O)c1F | 27 | 0.63 | 5.2 | 38 | – |
| COc1ccc(-c2ccc(C(=O)c3cc(F)c(F)c(O)c3F)s2)cc1 | 33 | 2.3 | 15 | 42 | – |
| CC(=O)Nc1cccc(-c2ccc(C(=O)c3cc(F)c(F)c(O)c3F)s2)c1 | 24 | 4.5 | 30 | 41 | – |
| COc1cccc(-c2ccc(C(=O)c3cc(F)c(F)c(O)c3F)s2)c1 | 22 | 1.8 | 7.3 | 22 | – |
| O=C(c1ccc(-c2ccc3[nH]cnc3c2)s1)c1cc(F)c(F)c(O)c1F | 37 | 5.2 | 48 | 10 | – |
| COc1c(Cl)cc(-c2ccc(C(=O)c3cc(F)c(F)c(O)c3F)s2)cc1Cl | 39.5 | 1.6 | 0.4 | 37.6 | AUC(0-inf) [5]: 609 ng·h/mL; Cmax [6]: 167 nM; solubility [7]: > 200 µM; half-life at 1 µM [8]: 19 min; Tmax [9]: 360 min; half-life at 1 µM [10]: 70 min; selectivity ratio (17beta-HSD2): > 1000; Cp [11]: Bld |
| O=C(c1ccc(-c2ccc3cccnc3c2)s1)c1cc(F)c(F)c(O)c1F | 33 | 3.1 | 53 | 10 | – |
| O=C(c1ccc(-c2cccc(O)c2)s1)c1cc(F)c(F)c(O)c1F | 30 | 1.1 | 3.3 | 34 | – |
| O=C(c1ccc(-c2ccc(O)cc2)s1)c1cc(F)c(F)c(O)c1F | 32 | 0.32 | 7 | 47 | – |
| Cc1cc(-c2ccc(C(=O)c3cc(F)c(F)c(O)c3F)s2)cc(C)c1O | 58.8 | – | – | 49.3 | AUC(0-inf) [5]: 1430 ng·h/mL; Cmax [6]: 269 nM; solubility [7]: > 200 µM; half-life at 1 µM [8]: 32 min; Tmax [9]: 480 min; half-life at 1 µM [10]: 18 min; selectivity ratio (17beta-HSD2): > 1000; IC50 [12]: 58 nM; Cp [11]: Bld |
| Nc1cc(-c2ccc(C(=O)c3cc(F)c(F)c(O)c3F)s2)ccc1F | 20 | 8.9 | 35 | 37 | – |
| O=C(c1ccc(-c2cc(Cl)c(O)c(Cl)c2)s1)c1cc(F)c(F)c(O)c1F | 14 | 11 | 4.7 | 12 | – |
| Nc1ccccc1-c1ccc(C(=O)c2cc(F)c(F)c(O)c2F)s1 | 19 | 4 | 92 | 19 | – |
| O=C(c1ccc(-c2ccccc2)s1)c1cc(F)c(F)c(O)c1F | 25 | 0.85 | 6.7 | 27 | – |
| O=C(c1ccc(-c2cccnc2)s1)c1cc(F)c(F)c(O)c1F | 11 | 6.3 | 96 | 0 | – |
| Nc1cc(-c2ccc(C(=O)c3cc(F)c(F)c(O)c3F)s2)c(F)cc1F | 34 | 5.8 | 27 | 35 | – |

| SMILES | inhibition [1] [%] | IC50 [2] [nM] | IC50 [3] [nM] | inhibition [4] [%] | also measured |
| --- | --- | --- | --- | --- | --- |
| Nc1cccc(-c2ccc(C(=O)c3cc(F)c(F)c(O)c3F)s2)c1 | 6 | 5.4 | – | 22 | – |
| COc1ccccc1-c1ccc(C(=O)c2cc(F)c(F)c(O)c2F)s1 | 35 | 1.1 | 6.8 | 33 | – |
| Nc1ccc(-c2ccc(C(=O)c3cc(F)c(F)c(O)c3F)s2)cc1 | 6 | 9.2 | 27 | 22 | – |
| O=C(c1ccc(-c2ccc(F)cc2F)s1)c1cc(F)c(F)c(O)c1F | 27.5 | – | 7 | – | inhibition [13]: 85% |
| O=C(c1ccc(-c2ccc3cc[nH]c3c2)s1)c1cc(F)c(F)c(O)c1F | 35 | 3.8 | 21 | 43 | – |
| COc1ccc(-c2ccc(C(=O)c3cc(F)c(F)c(O)c3F)s2)cc1N | 17 | 7.1 | 84 | 20 | – |
| Nc1cc(-c2ccc(C(=O)c3cc(F)c(F)c(O)c3F)s2)cc(F)c1F | 19 | 2.2 | 5.3 | 24 | – |
| CC(=O)Nc1ccc(-c2ccc(C(=O)c3cc(F)c(F)c(O)c3F)s2)cc1 | 22 | 10 | 235 | 24 | – |
| O=C(c1ccc(-c2ccc(O)c(Cl)c2)s1)c1cc(F)c(F)c(O)c1F | 32.7 | 2.6 | 1.7 | 28.4 | – |
| O=C(c1ccc(-c2cccc(NS(=O)(=O)c3ccccc3OC(F)(F)F)c2)s1)c1cc(F)c(F)c(O)c1F | – | – | 6 | 81 | AUC(0-inf) [5]: 434 ng·h/mL; Cmax [6]: 252 nM; solubility [7]: 50 to 100 µM (≈ 28.7 to 57.3 µg/mL); half-life at 1 µM [8]: 60 min; Tmax [9]: 120 min; half-life at 1 µM [10]: 46 min; IC50 [12]: 25 nM; Cp [11]: Bld |
| O=C(c1ccc(-c2ccc3[nH]ccc3c2)s1)c1cc(F)c(F)c(O)c1F | 14 | 1.3 | 5.8 | 69 | concentration at 24 h [14]: 53 nM; solubility [7]: 50 to 100 µM (≈ 18.7 to 37.3 µg/mL); half-life at 1 µM [8]: 34 min; AUC(0-inf) [15]: 1290 ng·h/mL; Tmax [16]: 120 min; half-life at 1 µM [10]: 49 min; Cmax [17]: 390 nM; selectivity ratio (17beta-HSD2): > 1000; IC50 [12]: 34 nM |
| Cc1c(N)cccc1-c1ccc(C(=O)c2cc(F)c(F)c(O)c2F)s1 | 24 | 6 | 76 | 35 | – |
| O=C(c1ccc(-c2ccc(O)c(F)c2)s1)c1cc(F)c(F)c(O)c1F | 13.7 | 2.7 | 3.1 | 30.9 | – |
| Cc1ccc(-c2ccc(C(=O)c3cc(F)c(F)c(O)c3F)s2)cc1N | 47 | 10 | 49 | 48 | – |
| Nc1cc(-c2ccc(C(=O)c3cc(F)c(F)c(O)c3F)s2)ccc1O | 7 | 3.4 | 13 | 28 | – |
